Data: publication PMC12396409, “Screening and hit evaluation of a microbial metabolite library against the pathogenic Plasmodium falciparum and Toxoplasma gondii parasites” (International Journal for Parasitology: Drugs and Drug …, 2025)
Read-outs that look alike come from different tables or passages of the source.

What was measured:
[1] = system: P. falciparum 3D7 parasites; assay: P. falciparum growth inhibition assay, 1-cycle (72 h treatment), SYBR DNA staining (library screen at 2 μg/mL and dose-response); type: cell-based, Plasmodium falciparum; settings: for activity at 2 µg/mL: Plasmodium falciparum, 3D7
[2] = system: P. falciparum 3D7 parasites; assay: P. falciparum growth inhibition assay, 2-cycle (120 h treatment), delayed-death screen and dose-response; type: cell-based, Plasmodium falciparum; settings: for activity at 2 µg/mL: Plasmodium falciparum, 3D7
[3] = system: T. gondii RH strain (RH-Tub-eYFP) tachyzoites; assay: microbe, parasite or virus in culture; type: cell-based, Toxoplasma gondii; settings: 72 h; for percent parasite growth at 2 µg/mL: Toxoplasma gondii
[4] = P. falciparum 3D7, 72 h, parasite screen at 2 μg/mL, % growth, replicate 1
[5] = P. falciparum 3D7, 72 h, parasite screen at 2 μg/mL, % growth, replicate 2
[6] = P. falciparum 3D7, 120 h, parasite screen at 2 μg/mL, % growth, replicate 1
[7] = P. falciparum 3D7, 120 h, parasite screen at 2 μg/mL, % growth, replicate 2
[8] = T. gondii, parasite screen at 2 μg/mL, % growth, replicate 1
[9] = T. gondii, parasite screen at 2 μg/mL, % growth, replicate 2
[10] = library screen at 2 μg/mL, 72 h, % growth, replicate 1
[11] = library screen at 2 μg/mL, 72 h, % growth, replicate 2
[12] = library screen at 2 μg/mL, 120 h, % growth, replicate 1
[13] = library screen at 2 μg/mL, 120 h, % growth, replicate 2
[14] = library screen at 2 μg/mL, % growth, replicate 1
[15] = library screen at 2 μg/mL, % growth, replicate 2

## C[C@@H]1Cc2c(Cl)cc(C(=O)N[C@@H](Cc3ccccc3)C(=O)O)c(O)c2C(=O)O1 [BIA-O1195]
[1]; [4]
  Pf_72h_%Growth_Rep1: 84.32%
[1]; [5]
  Pf_72h_%Growth_Rep2: 95.25%
[2]; [6]
  Pf_120h_%Growth_Rep1: 103.82%
[2]; [7]
  Pf_120h_%Growth_Rep2: 136.40%
[3]; [8]
  Tg_72h_%Growth_Rep1: 120.41%
[3]; [9]
  Tg_72h_%Growth_Rep2: 95.09%

## COc1ccc2c(c1)C(=O)NC(Cc1ccccc1)C(=O)NCCC(=O)N1CCCC1C(=O)N2 (stereo not drawn) [Aspercolorin]
[1]; [10]
  Pf_72h_%Growth_Rep1: 96.39%
[1]; [11]
  Pf_72h_%Growth_Rep2: 82.46%
[2]; [12]
  Pf_120h_%Growth_Rep1: 146.59%
[2]; [13]
  Pf_120h_%Growth_Rep2: 102.81%
[3]; [14]
  Tg_72h_%Growth_Rep1: 77.01%
[3]; [15]
  Tg_72h_%Growth_Rep2: 95.41%

## O=C1N[C@@H](Cc2c[nH]c3ccccc23)C(=O)N2CCC[C@@H]12 [Brevianamide F]
[1]; P. falciparum, 72 h, screen at 2 μg/mL, replicate 1, read-out: Pf_72h_%Growth_Rep1
  activity at 2 µg/mL: 103%
[1]; P. falciparum, 72 h, screen at 2 μg/mL, replicate 2, read-out: Pf_72h_%Growth_Rep2
  activity at 2 µg/mL: 84.4%
[2]; P. falciparum, 120 h, screen at 2 μg/mL, replicate 1, read-out: Pf_120h_%Growth_Rep1
  activity at 2 µg/mL: 148%
[2]; P. falciparum, 120 h, screen at 2 μg/mL, replicate 2, read-out: Pf_120h_%Growth_Rep2
  activity at 2 µg/mL: 91%
[3]; T. gondii, screen at 2 μg/mL, replicate 1, read-out: Tg_72h_%Growth_Rep1
  percent parasite growth at 2 µg/mL: 83.3%
[3]; T. gondii, screen at 2 μg/mL, replicate 2, read-out: Tg_72h_%Growth_Rep2
  percent parasite growth at 2 µg/mL: 92%

## CC(=O)OCC1=C[C@@H]2OC(=O)C3=CO[C@@H](O[C@@H]4O[C@H](CO)[C@@H](O)[C@H](O)[C@H]4O)[C@H]1[C@@H]32 [Asperuloside]
[1]; library screen at 2 μg/mL, 72 h, % growth, replicate 1, read-out: Pf_72h_%Growth_Rep1
  activity at 2 µg/mL: 86.2%
[1]; library screen at 2 μg/mL, 72 h, % growth, replicate 2, read-out: Pf_72h_%Growth_Rep2
  activity at 2 µg/mL: 89.3%
[2]; library screen at 2 μg/mL, 120 h, % growth, replicate 1, read-out: Pf_120h_%Growth_Rep1
  activity at 2 µg/mL: 94.8%
[2]; library screen at 2 μg/mL, 120 h, % growth, replicate 2, read-out: Pf_120h_%Growth_Rep2
  activity at 2 µg/mL: 94.6%
[3]; library screen at 2 μg/mL, % growth, replicate 1, read-out: Tg_72h_%Growth_Rep1
  percent parasite growth at 2 µg/mL: 123%
[3]; library screen at 2 μg/mL, % growth, replicate 2, read-out: Tg_72h_%Growth_Rep2
  percent parasite growth at 2 µg/mL: 97.1%

## COc1ccc(/C=C/C(=O)O)cc1O [BIA-I1729]
[1]; P. falciparum 3D7, 72 h, library screen at 2 μg/mL, % growth, replicate 1
  Pf_72h_%Growth_Rep1: 80.53%
[1]; P. falciparum 3D7, 72 h, library screen at 2 μg/mL, % growth, replicate 2
  Pf_72h_%Growth_Rep2: 116.78%
[2]; P. falciparum 3D7, 120 h, library screen at 2 μg/mL, % growth, replicate 1
  Pf_120h_%Growth_Rep1: 85.87%
[2]; P. falciparum 3D7, 120 h, library screen at 2 μg/mL, % growth, replicate 2
  Pf_120h_%Growth_Rep2: 112.77%
[3]; T. gondii RH, library screen at 2 μg/mL, % growth, replicate 1
  Tg_72h_%Growth_Rep1: 136.89%
[3]; T. gondii RH, library screen at 2 μg/mL, % growth, replicate 2
  Tg_72h_%Growth_Rep2: 92.18%

## COCCC[C@H]1O[C@@](O)([C@H](C)C2CC(OC)C(O)/C=C(C)/C=C(C)/C=C(/C)C(O[C@H]3O[C@H](C)[C@@H](OC)[C@H](O)[C@H]3O)C(C)/C=C(CO)/C=C(OC)\C=C(/C)C(=O)O2)[C@H](OC)[C@@H](O)[C@]1(C)O[C@H]1C[C@H](O)[C@H](O[C@H]2C[C@@](C)(O)[C@H](O)[C@@H](C)O2)[C@@H](C)O1 (stereo partly drawn) [Amycolatopsin A]
[1]; [10]
  Pf_72h_%Growth_Rep1: 76.67%
[1]; [11]
  Pf_72h_%Growth_Rep2: 110.14%
[2]; [12]
  Pf_120h_%Growth_Rep1: 67.28%
[2]; [13]
  Pf_120h_%Growth_Rep2: 94.98%
[3]; [14]
  Tg_72h_%Growth_Rep1: 96.54%
[3]; [15]
  Tg_72h_%Growth_Rep2: 72.55%

## CCOC(=O)[C@H](Cc1ccccc1)NC(=O)c1cc(Cl)c2c(c1O)C(=O)O[C@H](C)C2 [BIA-O1589]
[1]; [4]
  Pf_72h_%Growth_Rep1: 85.35%
[1]; [5]
  Pf_72h_%Growth_Rep2: 104.78%
[2]; [6]
  Pf_120h_%Growth_Rep1: 89.48%
[2]; [7]
  Pf_120h_%Growth_Rep2: 144.99%
[3]; [8]
  Tg_72h_%Growth_Rep1: 74.06%
[3]; [9]
  Tg_72h_%Growth_Rep2: 66.00%

## C=C(NC(=O)C(=C)NC(=O)c1ccc2c(n1)-c1coc(n1)C(=C)NC(=O)C(=C)NC(=O)c1nc(oc1C)C(=C)NC(=O)[C@H](C(C)(C)O)NC(=O)C(=C)NC(=O)c1nc(oc1C)/C(=C/C)NC(=O)[C@H]([C@@H](C)O)NC(=O)c1csc-2n1)C(N)=O [Berninamycin A]
[1]; [10]
  Pf_72h_%Growth_Rep1: 102.47%
[1]; [11]
  Pf_72h_%Growth_Rep2: 88.00%
[2]; [12]
  Pf_120h_%Growth_Rep1: 140.98%
[2]; [13]
  Pf_120h_%Growth_Rep2: 104.87%
[3]; [14]
  Tg_72h_%Growth_Rep1: 80.20%
[3]; [15]
  Tg_72h_%Growth_Rep2: 95.18%

## CC[C@H]1OC(=O)[C@H](C)[C@@H](O[C@H]2C[C@@](C)(OC)[C@@H](O)[C@H](C)O2)[C@H](C)[C@@H](O[C@@H]2O[C@H](C)C[C@H](N(C)C)[C@H]2O)[C@@]2(C)CC(C)=C(O2)[C@H](C)[C@@H](O)[C@]1(C)O [Erythromycin A enol ether]
[1]; [10]
  Pf_72h_%Growth_Rep1: 65.76%
[1]; [11]
  Pf_72h_%Growth_Rep2: 86.36%
[2]; [12]
  Pf_120h_%Growth_Rep1: 47.90%
[2]; [13]
  Pf_120h_%Growth_Rep2: 73.68%
[3]; [14]
  Tg_72h_%Growth_Rep1: 90.78%
[3]; [15]
  Tg_72h_%Growth_Rep2: 86.46%
